Results as given in patent publication US10189773B2, “In-vivo gelling pharmaceutical pre-formulation” (MEDICUS BIOSCIENCES, LLC, priority 2010, dated 2019).

Assay: Saturated solution of DDP or DCP in phosphate and borate buffers
Assay type: physicochemical
Details: 25° C.
From the text: Samples containing DDP or DCP were protected from light as a precaution.

Row | Compound | final concentration of saturated solution (borate buffer (pH of 7.94)) [mg/mL] | final concentration of saturated solution (phosphate buffer) [mg/mL]
1 | N.N.O=C([O-])C1(C(=O)[O-])CCC1.[Pt+2] [DCP, cis-Diammine(1,1-cyclobutanedicarboxylato)platinum(II)] | 15.6 | 14.7
2 | N.N.[Cl][Pt][Cl] [DDP, cisdiamminedichloroplatinum(II)] | 1.3 | 1.3
